Experimental data from patent US8466164B2.

Columns and labels:
SaOS-2 cells = assay: MTT cell viability assay on SaOS-2; details: SaOS-2, MTT, control = 100%, mean ± SD; for CV (%) after 24 h (cellular viability with respect to control): 24 h treatment; for CV (%) after 48 h (cellular viability with respect to control): 48 h treatment, 25 μM
recombinant human Src = recombinant human Src (Homo sapiens, UniProt P12931); assay: cell-free Src enzymatic assay; format: biochemical; details: calculated from ID50; triplicate, mean values; read-out: Ki toward recombinant human Src
Chain of recombinant human Src (P12931 whole entry): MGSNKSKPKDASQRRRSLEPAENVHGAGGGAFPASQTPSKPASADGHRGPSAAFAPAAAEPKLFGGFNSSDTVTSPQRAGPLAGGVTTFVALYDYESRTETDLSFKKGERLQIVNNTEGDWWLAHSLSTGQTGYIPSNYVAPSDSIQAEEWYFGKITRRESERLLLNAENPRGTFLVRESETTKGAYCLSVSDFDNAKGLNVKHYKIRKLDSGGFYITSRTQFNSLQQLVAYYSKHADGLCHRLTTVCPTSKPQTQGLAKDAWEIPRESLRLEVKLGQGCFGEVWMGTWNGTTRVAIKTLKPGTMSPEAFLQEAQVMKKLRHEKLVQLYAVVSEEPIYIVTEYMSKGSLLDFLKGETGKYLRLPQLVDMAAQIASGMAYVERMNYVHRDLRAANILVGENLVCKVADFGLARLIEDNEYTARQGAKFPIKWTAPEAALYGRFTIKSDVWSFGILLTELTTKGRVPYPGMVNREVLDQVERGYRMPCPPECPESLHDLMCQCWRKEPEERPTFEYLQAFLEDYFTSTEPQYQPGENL

melting point [°C] | Ki (recombinant human Src) [nM] | SMILES | CV (%) after 24 h (cellular viability with respect to control) (SaOS-2 cells) [%] | CV (%) after 48 h (cellular viability with respect to control) (SaOS-2 cells) [%]
99 to 100 |  | CCSc1nc(NCCc2ccccc2)c2cnn(CC(Cl)c3ccccc3)c2n1 (centres unmarked) [S1-72] | 107.3 ± 3.5 | 22.2 ± 1.3
 |  | Clc1cccc(Nc2ncnc3c2cnn3CC(Cl)c2ccccc2)c1 (centres unmarked) [S-17] | 104.1 ±0.4 | 101.3 ± 1.5
 |  | CSc1nc(NCCc2cccc(F)c2)c2cnn(CC(Cl)c3ccccc3)c2n1 (centres unmarked) [SI-56] | 101.1 ± 1.1 | 100.8 ± 2.1
 |  | CSc1nc(NCCc2ccc(Cl)cc2)c2cnn(CC(Cl)c3ccccc3)c2n1 (centres unmarked) [SI-57] | 85.2 ± 0.7 | 75.4 ± 1.3
122 to 123 |  | CSc1nc(NCCc2cccc(Cl)c2)c2cnn(CC(Cl)c3ccccc3)c2n1 (centres unmarked) [SI-58] | 80.6 ± 0.7 | 39.3 ± 2.0
99 to 100 |  | CSc1nc(NCCc2ccccc2Cl)c2cnn(CC(Cl)c3ccccc3)c2n1 (centres unmarked) [SI-59] | 102.9 ± 1.3 | 100.5 ± 0.5
99 to 100 |  | CSc1nc(NCCc2ccc(C)cc2)c2cnn(CC(Cl)c3ccccc3)c2n1 (centres unmarked) [SI-60] | 101.9 ± 1.9 | 96.3 ± 1.1
60 to 61 |  | COc1ccc(CCNc2nc(SC)nc3c2cnn3CC(Cl)c2ccccc2)cc1 (centres unmarked) [SI-61] | 101.0 ± 3.0 | 49.8 ± 2.1
152 to 153 |  | CSc1nc(NCc2ccccc2)c2cnn(CC(Cl)c3ccc(F)cc3)c2n1 (centres unmarked) [SI-65] | 62.7 ± 0.7 | 44.4 ± 2.5
130 to 131 |  | CSc1nc(NCc2ccccc2)c2cnn(CC(Cl)c3ccc(Cl)cc3)c2n1 (centres unmarked) [SI-70] | 52.2 ± 2.4 | 24.4 ± 2.5
127 to 129 |  | CSc1nc(NCCc2ccccc2)c2cnn(CC(Cl)c3ccc(Cl)cc3)c2n1 (centres unmarked) [SI-71] | 99.9 ± 0.9 | 89.4 ± 2.3
136 to 137 |  | CSc1nc(NCc2ccc(F)cc2)c2cnn(CC(Cl)c3ccccc3)c2n1 (centres unmarked) [SI-84] | 102.1 ± 1.4 | 99.2 ± 1.0
113 to 114 |  | CSc1nc(NCc2cccc(F)c2)c2cnn(CC(Cl)c3ccccc3)c2n1 (centres unmarked) [SI-85] | 106.2 ± 3.0 | 71.3 ± 2.1
 |  | CSc1nc(NCc2ccccc2F)c2cnn(CC(Cl)c3ccccc3)c2n1 (centres unmarked) [SI-86] | 104.1 ± 1.3 | 99.7 ± 0.4
126 to 127 |  | CSc1nc(NCc2ccc(Cl)cc2)c2cnn(CC(Cl)c3ccccc3)c2n1 (centres unmarked) [SI-87] | 113.4 ± 1.5 | 54.9 ± 2.4
158 to 159 |  | CSc1nc(NCc2ccccc2Cl)c2cnn(CC(Cl)c3ccccc3)c2n1 (centres unmarked) [SI-88] | 101.7 ± 0.9 | 102.1 ± 1.2
 |  | CSc1nc(Nc2cccc(F)c2)c2cnn(CC(Cl)c3ccccc3)c2n1 (centres unmarked) [SI-90] | 94.8 ± 2.7 | 84.3 ± 1.5
 | 1800 | CSc1nc(Nc2cccc(Br)c2)c2cnn(CC(Cl)c3ccccc3)c2n1 (centres unmarked) [SI-91] | 100.1 ± 1.1 | 84.7 ± 0.3
 | 500 | CCSc1nc(Nc2cccc(Cl)c2)c2cnn(CC(Cl)c3ccccc3)c2n1 (centres unmarked) [SI-96] | 76.5 ± 1.9 | 44.3 ± 1.8
 |  | CCCSc1nc(Nc2cccc(Cl)c2)c2cnn(CC(Cl)c3ccccc3)c2n1 (centres unmarked) [SI-101] | 77.8 ± 3.0 | 6.4 ± 1.9
 |  | CSc1nc(Nc2ccccc2)c2cnn(CC(Cl)c3ccccc3)c2n1 (centres unmarked) [SI-118] | 100.1 ± 1.2 | 94.4 ± 0.7
 |  | CSc1nc(Nc2cccc(Br)c2)c2cnn(CC(Cl)c3ccc(F)cc3)c2n1 (centres unmarked) [SI-128] | 63.1 ± 1.1 | 55.4 ± 2.0
 | 700 | Clc1cccc(Nc2nc(SC3CCCCC3)nc3c2cnn3CC(Cl)c2ccccc2)c1 (centres unmarked) [SI-153] |  | 
